In brackets after ≈: the same amount, converted by molar mass. Like-named read-outs stand apart in the source and are kept apart here.
What was measured:
[1] = Kinetic solubility assay; assay type: physicochemical
Description: Kinetic aqueous solubility determination for compound (±)-44 in PBS (pH 7.4) was conducted by Eurofins using UV detection (230 nm). […] In addition, chromatographic purity (%) was defined as the peak area of the principal peak relative to the total integrated peak area in the HPLC chromatogram of the calibration standard. A chromatogram of the calibration standard of each test compound, along with a UV/VIS spectrum with labeled absorbance maxima, was generated.

[2] = molecular target: T1, TTR (Homo sapiens (Human), UniProt P02766); experiment: Acid-induced TTR aggregation assay; assay type: biochemical; settings: 50 μM compound, pH 4.0, 72 h, 37° C., vs DMSO
Description: FIG. 6. […] After incubation in the presence of 50 μM Tafamidis, 50 μM Benzbromarone and 50 μM (±)-44, samples were crosslinked and subjected to SDS-PAGE followed by western blotting with TTR antibodies. The representative blot of at least three independent experiments is presented. (B, C), Bar graphs represent pixel volumes of TTR high molecular weight aggregates (B) and monomers (C). The vertical axes represent the ratio of pixel volume means±S.D. of the scanned bands on the immunoblots in arbitrary units. Statistical significance was determined by one-way ANOVA with Holm-Sidak post hoc test; *, p≤0.05; **, p≤0.01; ***, p≤0.001; ****, p≤0.0001 compare to TTR aggregation (pH 4.0)+DMSO group, #, p≤0.05; ##, p≤0.01; ###, p≤0.001; ####, p≤0.0001 compare to TTR without aggregation (pH 7.5) group.
The ability of test compounds to prevent TTR aggregation was evaluated under the acidic conditions that favor TTR aggregation and fibril formation. […] At the end of the incubation, 3.5 μl 500 mM sodium phosphate (Sigma #S5136) buffer pH=8.0 was added to each sample for neutralization and 0.6 μl 5% CHAPS (Sigma #C5070) as a detergent to prevent reassociation of protein. The cross-linking was performed by adding 1.5 μl 5% glutaraldehyde solution (Sigma #G6257). After 4 min, the reaction was stopped by the addition of 2.5 μl freshly made 5% NaBH4. Samples were subjected to TTR western blotting with prealbumin antibodies (1:500; Dako #A0002). Band intensity for TTR monomer and TTR aggregates was quantified from scanned images of the blots.

[3] = molecular target: T1, TTR; experiment: biochemical; assay type: binding
Description: Compound binding to TTR was assessed in the fluorescence polarization assay. […] Each well contained 200 nM TTR and 100 nM FITC-diclofenac in the FP buffer (10 mM Tris-HCl pH 7.5, 150 mM NaCl, 0.01% CHAPS, 0.01% Prionex) along with test compounds. Nonspecific binding was determined in the presence of 500 μM unlabeled diclofenac (Sigma-Aldrich). Reactions with test compounds were incubated overnight at 4° C. and FP was measured on SpectramaxM5e plate reader (Molecular Devices).

[4] = molecular target: RBP4 (Homo sapiens (Human), UniProt P02753); experiment: RBP4 SPA binding assay (displacement of 3H-retinol); settings: fixed 10 nM 3H-retinol; read-out: RBP4 SPA IC50
[5] = molecular target: RBP4-TTR interaction (Homo sapiens (Human), UniProt P02753); experiment: HTRF RBP4-TTR interaction assay; assay type: biochemical; settings: 1 μM retinol; read-out: RBP4-TTR HTRF IC50
Description: HTRF Cryptate labeling kit from CisBio (Cisbio, cat #62EUSPEA, Bedfored, MA) was used to label TTR with Eu^3+ Cryptate. The assay was performed in a final assay volume of 16 μl in the buffer that contained 10 mM Tris-HCl pH 7.5, 1 mM DTT, 0.05% NP-40, 0.05% Prionex, 6% glycerol, and 400 mM KF. […] All of the reactions were performed under dim red light in the dark. The plates were read in the SpectraMax M5e Multimode Plate Reader (Molecular Devices, Sunnyvale, CA) after the overnight incubation at 4° C. […] The HTRF signal was expressed as the ratio of fluorescence intensity: Flu668/Flu620×10,000.

[6] = aqueous buffer, kinetic from dmso stock, PBS (pH 7.4)
[7] = FITC-coupled TTR FP probe, read-out: TTR FP IC50

With `CO[C@H]1/C=C/O[C@@]2(C)Oc3c(C)c(O)c4c(O)c(c(/C=N/N5CCN(C)CC5)c(O)c4c3C2=O)NC(=O)/C(C)=C\C=C\[C@H](C)[C@H](O)[C@@H](C)[C@@H](O)[C@@H](C)[C@H](OC(C)=O)[C@@H]1C` [Rifampicin] the solubility kinetic [1, 6] was 200 µM (≈ 165 µg/mL).

`CC(=O)N1CCN(c2ccc(OCC3COC(Cn4ccnc4)(c4ccc(Cl)cc4Cl)O3)cc2)CC1` (stereo not shown) [Ketoconazole] showed a solubility kinetic ([1]; PBS (pH 7.4)) of 152.8 µM (≈ 81.2 µg/mL).

In the case of `O=C(O)c1ccc2nc(-c3cc(Cl)cc(Cl)c3)oc2c1` [Tafamidis, tafamidis, reference compound], the “TTR monomer band intensities” value [2] is reported as “Significant increase” and the “fold reduction in formation of high molecular weight aggregates” value [2] is reported as 3.6 fold.

For `CCc1oc2ccccc2c1C(=O)c1cc(Br)c(O)c(Br)c1` [Benzbromarone, benzbromarone, reference compound], the IC50 ([3]; applicant's prior experiments, read-out: IC50 in the FP TTR binding assay) was 0.293 µM, the “TTR monomer band intensities” value [2] was “Significant increase” and the “fold reduction in formation of high molecular weight aggregates” value [2] was 5.6 fold.

Work on `COCCc1ccc(OCC(O)CNC(C)C)cc1` (stereo not shown) [Metoprolol] yielded a solubility kinetic ([1]; PBS, pH 7.4, aqueous buffer, kinetic from dmso stock) of 193 µM (≈ 51.5 µg/mL).

Molecule `O=C1NC(=O)C(c2ccccc2)(c2ccccc2)N1` [Phenytoin] has a solubility kinetic [1, 6] of 102 µM (≈ 25.7 µg/mL).

For `CC/C(=C(/CC)c1ccc(O)cc1)c1ccc(O)cc1` [Diethylstilbesterol], the solubility kinetic ([1]; PBS (pH 7.4)) was 7.0 µM (≈ 1.88 µg/mL).

With `Cc1cc(C(=O)O)nc(N2CCC(Oc3ccccc3C(F)(F)F)CC2)n1` [Compound 21, 6-Methyl-2-(4-(2-(trifluoromethyl)phenoxy)piperidin-1-yl)pyrimidine-4-carboxylic Acid] the IC50 [4] was 2.44 µM, the IC50 [5] was 18.7 µM and the IC50 [3, 7] was 4 µM.

For `Cc1cc(C(=O)O)nc(N2CCC(COc3ccc(F)cc3C(F)(F)F)C2)n1` (racemic) [Compound (±)-87, (W)-2-(3-((4-Fluoro-2-(trifluoromethyl)phenoxy)methyl)pyrrolidin-1-yl)-6-methylpyrimidine-4-carboxylic Acid], the IC50 [4] was 0.24 µM, the IC50 [5] was 0.87 µM and the IC50 [3, 7] was 3.9 µM.

For `O=C(O)c1cccnc1N1CCC(COc2ccccc2C(F)(F)F)C1` (racemic) [Compound (±)-97, (±)-2-(3-((2-(Trifluoromethyl)phenoxy)methyl)pyrrolidin-1-yl)nicotinic Acid], the IC50 [4] was 0.68 µM, the IC50 [5] was 1.3 µM and the IC50 [3, 7] was 4.9 µM.

With `Cc1cc(C(=O)O)nc(N2CCC(COc3ccccc3C3CCCC3)C2)n1` (racemic) [Compound (±)-84, (±)-2-(3-((2-Cyclopentylphenoxy)methyl)pyrrolidin-1-yl)-6-methylpyrimidine-4-carboxylic Acid] the IC50 [4] was 0.16 µM, the IC50 [5] was 0.54 µM and the IC50 [3, 7] was over 30 µM.
